In this experiment the test system is M. tuberculosis H37Rv-GFP. The experiment is described as follows: microbe, parasite or virus in culture. Particulars: Mycobacterium tuberculosis, H37RV, Macrophage. The class given is cell-based, Mycobacterium tuberculosis.
[1] abbreviates: confirmation, 20 uM, intracellular, read-out: QIM Confirm % Inhibition 20 uM.
Where [2] appears, read: primary screen, 20 μM, intracellular, read-out: Primary QIM % Inhibition.
[3] abbreviates: read-out: Primary QIM % Inhibition.
The mark [4] stands for this setting: read-out: QIM Confirm % Inhibition 20 uM.

Like-named read-outs stand apart in the source and are kept apart here.

Turning to `COc1ccc(/C=C2/c3ccccc3-c3ccc(C(=O)CCCCN4CCCCC4)cc32)cc1` [IPK 000 198 56], the inhibition at 20 µM is, setting by setting: under setting [1], 64.7%; under setting [2], 15.1%.
For `CC(C)c1ccc(OCC(=O)N/N=C\c2ccccc2OCC(=O)O)cc1` [IPK 000 138 43] the same measures were 78.9% and 76.3%.
With `CC(C)(C)c1ccc(O)c(C(=O)Oc2ccccc2)c1` [IPK 000 143 45], the inhibition at 20 µM under setting [1] turned out to be 83.5% and the inhibition at 20 µM under setting [2] turned out to be 81.2%.
Consider `COc1ccc(/C=N/NC(=O)c2ccncc2)cc1` [IPK 000 219 28], for which the inhibition at 20 µM reads like this: under setting [1], 46.2%; under setting [2], 106%.
In the case of `O=C(Nc1ccc(Cl)c(Cl)c1)c1ccco1` [IPK 000 048 49], the inhibition at 20 µM worked out at 84.5% under setting [3] and 92.9% under setting [4].
`C/C(=N\NC(=O)COc1cccc(Br)c1)c1ccccn1` [IPK 000 157 55]: the inhibition at 20 µM is 19.9% under setting [1] and 22% under setting [2].
`Cc1cc(C)nc(NC(=N)Nc2ccc(OCc3ccc(Cl)cc3)cc2)n1` [IPK 000 163 93]: the inhibition at 20 µM is, setting by setting: under setting [1], 89.9%; under setting [2], 66.7%.
As to `C/C(=N\NC(=S)Nc1cccc(C)c1)c1ccccc1O` [IPK 000 173 06], the inhibition at 20 µM reads like this: under setting [1], 15.8%; under setting [2], 44%.
Consider `CCc1ccc(NC(=O)C23CC4CC(CC(C4)C2)C3)cc1` [IPK 000 228 46], for which the inhibition at 20 µM under setting [1] amounted to 37.8% and the inhibition at 20 µM under setting [2] was determined as 22.5%.
On to `COc1cccc(C(CC(=O)c2ccc(Cl)cc2)C(C#N)C#N)c1` (stereo not drawn) [IPK 000 130 54], for which the inhibition at 20 µM by setting is: under setting [1], 65.8%; under setting [2], 66.7%.
For `CCc1cccc(NC(=O)c2cccs2)c1` [IPK 000 257 61], in that order: 79.9% and 71.5%.
`O=C(Nc1cccc(C(F)(F)F)c1)c1cccs1` [IPK 000 202 08]: the inhibition at 20 µM under setting [1] was determined as 67.4% and the inhibition at 20 µM under setting [2] amounted to 65.7%.
With `CCOc1ccc(C(=O)NCCC(C)C)cc1` [IPK 000 210 83], the inhibition at 20 µM worked out at 48.2% under setting [1] and 70.4% under setting [2].
Consider `CCN(CC)c1ccc(/C=N/NC(=O)c2ccncc2)cc1` [IPK 000 195 99], for which the inhibition at 20 µM runs as follows: under setting [1], 69.5%; under setting [2], 79.1%.
On to `O=C(NC12CC3CC(CC(C3)C1)C2)N1CCN(c2ccccc2)CC1` [IPK 000 249 84], for which the inhibition at 20 µM is 80.9% under setting [1] and 78.2% under setting [2].
Consider `CCOC(=O)C1=C(COc2ccc(F)cc2)NC(=O)NC1c1ccc2c(c1)OCO2` (stereo not drawn) [IPK 000 251 80], for which the inhibition at 20 µM runs as follows: under setting [1], 38.2%; under setting [2], 25.5%.
As to `CSc1ccc(/C=N/Nc2nc(-c3ccc(NC(C)=O)cc3)cs2)cc1` [IPK 000 163 67], the inhibition at 20 µM runs as follows: under setting [1], 99.5%; under setting [2], 68.1%.
For the compound `C/C(=N/NC(=O)c1cc2ccccc2cc1O)c1ccc(O)cc1` [IPK 000 180 11], the inhibition at 20 µM by setting is: under setting [1], 69.7%; under setting [2], 68.2%.
`O=C(/C=C/c1ccccc1F)c1ccc(Cl)cc1` [IPK 000 172 35]: the inhibition at 20 µM came to 59.9% under setting [1] and 0.9% under setting [2].
Take `CC1=NN(C(N)=S)C(=O)/C1=N/Nc1ccc(C)cc1` [IPK 000 168 31]: the inhibition at 20 µM reads like this: under setting [1], 78.1%; under setting [2], 83.9%.
For the compound `O=C(O)c1cccc2c1NC(c1ccccc1[N+](=O)[O-])C1Cc3ccccc3C21` (stereo not drawn) [IPK 000 241 72], the inhibition at 20 µM under setting [1] came out at 28% and the inhibition at 20 µM under setting [2] was -43.3%.
`C/C(=N\NC(=O)c1ccccc1)c1ccc2ccccc2c1` [IPK 000 139 17]: the inhibition at 20 µM runs as follows: under setting [1], 65.8%; under setting [2], 72.9%.
Regarding `Cc1ccc(C)n1-c1ccc(C(=O)O)c(O)c1` [IPK 000 200 47], the inhibition at 20 µM reads like this: under setting [1], 19.1%; under setting [2], 6.3%.
As for `O=C(CSC1=NCCS1)Nc1ccc(Br)cc1F` [IPK 000 150 41], the inhibition at 20 µM under setting [1] came to 83.3% and the inhibition at 20 µM under setting [2] came to 78.3%.
Consider `Cc1cc(OCC(=O)NN)ccc1Br` [IPK 000 192 59], for which the inhibition at 20 µM is, setting by setting: under setting [1], 81.1%; under setting [2], 65.3%.
Turning to `O=C(N/N=C/c1c(Cl)cccc1Cl)c1ccncc1` [IPK 000 170 33], the inhibition at 20 µM runs as follows: under setting [1], 96.3%; under setting [2], 49.5%.
On to `CSc1ccc(/C=N/Nc2nc(-c3ccc(NC(=O)CCC(=O)O)cc3)cs2)cc1` [IPK 000 262 07], for which the inhibition at 20 µM was 7.9% under setting [1] and 80.3% under setting [2].
As for `Cc1ccccc1C(=O)NNC(=O)c1cc([N+](=O)[O-])cc([N+](=O)[O-])c1` [IPK 000 169 30], the inhibition at 20 µM by setting is: under setting [3], 56.2%; under setting [4], 73.7%.
For the compound `O=C(NNC(=O)c1cc([N+](=O)[O-])cc([N+](=O)[O-])c1)c1ccc(COc2ccc3c(c2)CCC3)cc1` [IPK 000 149 44], the inhibition at 20 µM under setting [3] was 57.6% and the inhibition at 20 µM under setting [4] was 47.1%.
Regarding `CCOC(=O)c1sc(NC(=O)CCCc2ccccc2)nc1C` [IPK 000 254 25], the inhibition at 20 µM was 18.5% under setting [1] and 32.5% under setting [2].
Consider `Oc1ccccc1/N=C/c1ccc(OCc2ccccc2)cc1` [IPK 000 169 86], for which the inhibition at 20 µM under setting [1] stood at 13% and the inhibition at 20 µM under setting [2] is 0.5%.
On to `O=C1OCc2cc(NC(=O)C34CC5CC(CC(C5)C3)C4)ccc21` [IPK 000 249 14], for which the inhibition at 20 µM was found to be 68.6% under setting [1] and 45% under setting [2].
As for `O=c1c(/C=N/Cc2ccco2)c(NCc2ccco2)nc2ccccn12` [IPK 000 130 26], the inhibition at 20 µM under setting [1] stood at 29.9% and the inhibition at 20 µM under setting [2] was determined as 66.3%.
On to `Cc1ccc(C(=O)NCCSC2CCCCC2)cc1[N+](=O)[O-]` [IPK 000 229 50], for which the inhibition at 20 µM by setting is: under setting [1], 83.6%; under setting [2], 60.1%.
As to `O=C(COc1cccc(Cl)c1)N/N=C/c1ccc([N+](=O)[O-])o1` [IPK 000 147 98], the inhibition at 20 µM runs as follows: under setting [1], 72.3%; under setting [2], 6.3%.
Turning to `CCOC(=O)c1sc(NC(=O)CCC2CCCCC2)nc1C` [IPK 000 255 46], the inhibition at 20 µM reads like this: under setting [1], 53.1%; under setting [2], 25%.
For `O=C(CCCCC1=CCCS1)Nc1ccc(C(F)(F)F)cc1` [IPK 000 148 64] the same measures were 71.4% and 72.5%.
`O=C(NCCC1=CCCCC1)C(=O)Nc1cccc(F)c1` [IPK 000 133 46]: the inhibition at 20 µM runs as follows: under setting [1], 94.4%; under setting [2], 69.6%.
For `CS(=O)(=O)c1nc(-c2ccc(Cl)cc2)n[nH]1` [IPK 000 134 63], the inhibition at 20 µM is 12.6% under setting [1] and -18.3% under setting [2].
On to `O=C(c1cc([N+](=O)[O-])cc([N+](=O)[O-])c1)N1CCc2ccccc2C1` [IPK 000 046 86], for which the inhibition at 20 µM under setting [3] was found to be 26.6% and the inhibition at 20 µM under setting [4] is 40.8%.
As for `Cc1ccc2nc(-c3ccc(NC(=O)CN4CCCC4)cc3)sc2c1` [IPK 000 125 61], the inhibition at 20 µM was 85.8% under setting [1] and 44.1% under setting [2].
Turning to `CC(=O)OC(OC(C)=O)c1ccc([N+](=O)[O-])s1` [IPK 000 155 36], the inhibition at 20 µM runs as follows: under setting [1], 74%; under setting [2], 67.8%.

Values taken from US8785452B2, “Anti-infective compounds” (priority 2008, dated 2014).
